Results: US9801960B2, “Probe for a biological specimen and labelling method and screening method using the probe” (CANON KABUSHIKI KAISHA, priority 2008, dated 2017)

Legend:
Zebrafish juveniles = assay: In vivo labelling of Zebrafish juveniles with probe for biological specimen; design: key to Staining property: +++: stained; −: no stained; key to Fluorescence sensitivity: +++: strongly observed; ++: moderately observed; +: weakly observed; −: no stained; conditions: 1 hour; for Site(s) to be labelled: 10 ng/mL in water, stereoscopic microscope; for Fluorescence sensitivity / Staining property: 10 ng/mL; for Fluorescence sensitivity: fluorescence intensity visually evaluated; for Staining property: visually evaluated
Experimental: Five juveniles of Zebrafish were put into one well of a well plate together with rearing water. After rearing water had been discharged, 1 mL of distilled water was added to the well, and a solution of a staining compound (1) in DMSO was further added thereto so as to achieve a concentration of 10 ng/mL, followed by gentle stirring (pipetting). Further, Egg Water was prepared by dissolving artificial seawater SEALIFE (manufactured by Marinetech Co., Ltd.) in distilled water at a concentration of 60 mg/L. After the whole had been left to stand for 1 hour, distilled water in the well was discharged and replaced by 1 mL of fresh Egg Water. In addition, such an operation that Egg Water was discharged and replaced by 1 mL of fresh Egg Water was repeated twice. One of the juveniles was taken out from the well onto a dish, supplemented with 100 μL of a 3% methylcellulose aqueous solution to fix the movement of the juvenile, and photographed with a stereoscopic microscope (MZ10F: manufactured by Leica Microsystems K.K.).
The same operation as that in Example 1 was performed except that the staining compound (1) used in Example 1 was changed to any one of the staining compounds described in Table 1.
The same operation as that in Example 1 was performed except that the staining compound (1) used in Example 1 was changed to any one of indocyanine green (ICG) and fluorescein.
The staining property of each of the staining compounds of Labelled Examples 1 to 78 and Labelled Comparative Examples 1 and 2 was visually evaluated (+++: stained and −: no stained).
The fluorescence intensity of each of the staining compounds of Labelled Examples 1 to 78 and Labelled Comparative Examples 1 and 2 was visually evaluated (+++: strongly observed, ++: moderately observed, +: weakly observed, and −: no stained).

[1] = Storage stability of staining compound solution in DMSO; format: physicochemical; conditions: 10 ng/mL in DMSO, closed glass container, normal temperature, 1 month; rate of change of absorbance and fluorescence intensity
Experimental: A 10 ng/mL solution of each of the staining compounds of Labelled Examples 1 to 78 and Labelled Comparative Examples 1 and 2 in DMSO was prepared, charged into a well-closed container made of glass, and left to stand still at normal temperature for 1 month. The absorbance and the fluorescence intensity at the time of the start of a storage stability test were measured at a given wavelength, and their rates of change were examined (+++: rates of change of the absorbance and the fluorescence intensity are less than 5%, and thus, the storage stability is highly excellent; ++: rates of change of the absorbance and fluorescence intensity are 5 to 15%, and thus, the storage stability is excellent; and −: rates of change of the absorbance and fluorescence intensity are more than 15%, and thus, the storage stability is poor).

[2] = Excitation and fluorescence emission wavelength measurement; format: physicochemical; design: Stokes shift (λem − λex): unit not given here; conditions: aqueous solution: 10 mg/mL solution in DMSO diluted 500-fold with purified water
Experimental: It should be noted that the excitation wavelength and the fluorescence emission wavelength of the staining compound were determined by measuring an aqueous solution, which had been obtained by diluting 500-fold a 10 mg/mL solution of the staining compound in DMSO with purified water, with a fluorescence spectrophotometer FL 4500 manufactured by Hitachi High-Technologies Corporation.

| Compound | Excitation wavelength λex [2] | Fluorescence emission wavelength λem [2] | Stokes shift (λem − λex) [2] | Site(s) to be labelled (Zebrafish juveniles) | Fluorescence sensitivity (Zebrafish juveniles) | Staining property (Zebrafish juveniles) | Storage stability [1] |
| --- | --- | --- | --- | --- | --- | --- | --- |
| CCCCN1C(=O)/C(=c2\s/c(=C/c3ccc4c(c3)C3CCCC3N4c3ccc(OC)cc3)c(=O)n2CC(=O)OCC)SC1=S (stereo not drawn) [Dye 62] | 450 nm | 527 nm | 77 | gastrointestinal tract | +++ | +++ | +++ (rates of change of the absorbance and the fluorescence intensity are less than 5%, and thus, the storage stability is highly excellent) |
| COc1ccc(N2c3ccc(/C=c4/s/c(=C5/SC(=S)N(Cc6ccccc6)C5=O)n(CC(=O)O)c4=O)cc3C3CCCC32)cc1 (stereo not drawn) [Dye 67] | 568 nm | 712 nm | 144 | blood vessel | +++ | +++ | +++ (rates of change of the absorbance and the fluorescence intensity are less than 5%, and thus, the storage stability is highly excellent) |
| CCN1C(=O)/C(=c2\s/c(=C/c3ccc4c(c3)C3CCCC3N4c3ccc(OC)cc3)c(=O)n2CC)SC1=S (stereo not drawn) [Dye 68] | 602 nm | 667 nm | 65 | gastrointestinal tract | +++ | +++ | +++ (rates of change of the absorbance and the fluorescence intensity are less than 5%, and thus, the storage stability is highly excellent) |
| C=CCN1C(=O)/C(=c2\s/c(=C/c3ccc4c(c3)C3CCCC3N4c3ccc(C=C(c4ccccc4)c4ccccc4)cc3)c(=O)n2CC(=O)OCC)SC1=S (stereo not drawn) [Dye 69] | 600 nm | 656 nm | 56 | gastrointestinal tract | +++ | +++ | +++ (rates of change of the absorbance and the fluorescence intensity are less than 5%, and thus, the storage stability is highly excellent) |
| O=C(O)CC[n+]1c(/C=C/c2ccc3c(c2)C2CCCC2N3c2ccc(C=C(c3ccccc3)c3ccccc3)cc2)sc2ccccc21 (stereo not drawn) [Dye 73] | 598 nm | 726 nm | 128 | nose | +++ | +++ | +++ (rates of change of the absorbance and the fluorescence intensity are less than 5%, and thus, the storage stability is highly excellent) |
| CCN1C(=O)/C(=c2/s/c(=C/c3ccc4c(c3)C3CCCC3N4c3ccc(C=C(c4ccccc4)c4ccccc4)cc3)c(=O)n2CC(=O)O)SC1=S (stereo not drawn) [Dye 102] | 551 nm | 673 nm | 122 | gastrointestinal tract | +++ | +++ | +++ (rates of change of the absorbance and the fluorescence intensity are less than 5%, and thus, the storage stability is highly excellent) |
| CCN1C(=O)/C(=c2\s/c(=C/c3ccc4c(c3)C3CCCC3N4c3ccc(C=C(c4ccccc4)c4ccccc4)cc3)c(=O)n2CC(=O)O)SC1=S (stereo not drawn) [Dye 103] | 567 nm | 702 nm | 135 | gastrointestinal tract | +++ | +++ | +++ (rates of change of the absorbance and the fluorescence intensity are less than 5%, and thus, the storage stability is highly excellent) |
| CCN1c2ccc(/C=C3/SC(=S)N(CC(=O)O)C3=O)cc2C2CCCC21 (stereo not drawn) [Dye 109] | 440 nm | 600 nm | 160 | liver and gastrointestinal tract | +++ | +++ | +++ (rates of change of the absorbance and the fluorescence intensity are less than 5%, and thus, the storage stability is highly excellent) |
| CCN1C(=O)/C(=c2/s/c(=C/c3ccc4c(c3)C3CCCC3N4CC)c(=O)n2CC(=O)O)SC1=S (stereo not drawn) [Dye 110] | 623 nm | 671 nm | 48 | blood vessel | +++ | +++ | +++ (rates of change of the absorbance and the fluorescence intensity are less than 5%, and thus, the storage stability is highly excellent) |

Further lines, with some results ahead:

| Excitation wavelength λex [2] | Fluorescence emission wavelength λem [2] | Stokes shift (λem − λex) [2] | Compound | Site(s) to be labelled (Zebrafish juveniles) | Fluorescence sensitivity (Zebrafish juveniles) | Staining property (Zebrafish juveniles) | Storage stability [1] |
| --- | --- | --- | --- | --- | --- | --- | --- |
| 563 nm | 609 nm | 46 | CCCCN1C(=O)/C(=c2\s/c(=C/c3ccc4c(c3)C3CCCC3N4c3ccccc3)c(=O)n2CC(=O)OCC)SC1=S (stereo not drawn) [Dye 60] | gastrointestinal tract | ++ | +++ | +++ (rates of change of the absorbance and the fluorescence intensity are less than 5%, and thus, the storage stability is highly excellent) |
| 586 nm | 661 nm | 75 | O=C(O)Cn1c(=O)/c(=C\c2ccc3c(c2)C2CCCC2N3c2ccccc2)s/c1=C1/SC(=S)N(Cc2ccccc2)C1=O (stereo not drawn) [Dye 66] | blood vessel, nose, and gastrointestinal tract | ++ | +++ | ++ (rates of change of the absorbance and fluorescence intensity are 5 to 15%, and thus, the storage stability is excellent) |
| 583 nm | 668 nm | 85 | COc1ccc(N2c3ccc(/C=C/c4sc5ccccc5[n+]4CCC(=O)O)cc3C3CCCC32)cc1 (stereo not drawn) [Dye 72] | gallbladder and gastrointestinal tract | +++ | +++ | +++ (rates of change of the absorbance and the fluorescence intensity are less than 5%, and thus, the storage stability is highly excellent) |
| 592 nm | 671 nm | 79 | COc1ccc(N2c3ccc(/C=C/C4=[N+](CCC(=O)O)c5ccccc5C4(C)C)cc3C3CCCC32)cc1 (stereo not drawn) [Dye 76] | gastrointestinal tract and lower abdomen | +++ | +++ | +++ (rates of change of the absorbance and the fluorescence intensity are less than 5%, and thus, the storage stability is highly excellent) |
| 535 nm | 655 nm | 120 | O=C(O)CN1C(=O)/C(=C\c2ccc3c(c2)C2CCCC2N3c2ccc(C=C(c3ccccc3)c3ccccc3)cc2)SC1=S (stereo not drawn) [Dye 88] | nose | +++ | +++ | +++ (rates of change of the absorbance and the fluorescence intensity are less than 5%, and thus, the storage stability is highly excellent) |
| 451 nm | 530 nm | 79 | N#C/C(=C\c1ccc2c(c1)C1CCCC1N2c1ccccc1)C(=O)O (stereo not drawn) [Dye 105] | liver and gastrointestinal tract | ++ | +++ | +++ (rates of change of the absorbance and the fluorescence intensity are less than 5%, and thus, the storage stability is highly excellent) |
| 479 nm | 600 nm | 121 | N#C/C(=C\c1ccc2c(c1)C1CCCC1N2c1ccc(C=C(c2ccccc2)c2ccccc2)cc1)C(=O)O (stereo not drawn) [Dye 108] | – | +++ | +++ | +++ (rates of change of the absorbance and the fluorescence intensity are less than 5%, and thus, the storage stability is highly excellent) |
